What is called melting point is the temperature, or range, at which the solid turns liquid.

Where a name gives a salt, the structure may show the parent alone.

As to `CCC(CC)(NC(=O)c1cnn2c1NC(c1cccc(OC)c1)CC2(C)C)c1ccc(C)cc1` (stereo not drawn) (as salt: HCl) [Example 820, N-(1-ethyl-1-(4-methylphenyl)propyl)-5-(3-methoxyphenyl)-7,7-dimethyl-4,5,6,7-tetrahydropyrazolo[1,5-a]pyrimidine-3-carboxamide], the melting point lay within 168 to 169 °C.

In turn, `CCC(CC)(NC(=O)c1c(C)nn2c1N[C@@H](c1ccccc1)CC2(C)C)c1ccc(C(=O)O)cc1` [Example 1076, (5R)-4-(1-ethyl-1-(((-2,7,7-trimethyl-5-phenyl-4,5,6,7-tetrahydropyrazolo[1,5-a]pyrimidin-3-yl)carbonyl)amino)propyl) benzoic acid] returned a melting point of 234 to 236 °C.

`CCc1ccc(C(CC)(CC)NC(=O)c2cnn3c2N[C@@H](c2ccccc2)CC3(C)C)cc1` (as salt: HCl) [Example 1051, (5R)-N-(1-ethyl-1-(4-ethylphenyl)propyl)-7,7-dimethyl-5-phenyl-4,5,6,7-tetrahydropyrazolo[1,5-a]pyrimidine-3-carboxamide] came in with a melting point of 149 to 150 °C.

Turning to `CC(C)(NC(=O)c1cnn2c1NC(c1ccccc1)CC2(C)C)c1ccc(Cl)cc1` (stereo not drawn) (as salt: HCl) [Example 791, N-(1-(4-chlorophenyl)-1-methylethyl)-7,7-dimethyl-5-phenyl-4,5,6,7-tetrahydropyrazolo[1,5-a]pyrimidine-3-carboxamide], the melting point is 207 to 208 °C.

In the case of `CCC(CC)(NC(=O)c1c(C)nn2c1N[C@@H](c1ccccc1)CC2(C)C)c1ccc(Cl)cc1` (as salt: HCl) [Example 1043, (5R)-N-(1-(4-chlorophenyl)-1-ethylpropyl)-2,7,7-trimethyl-5-phenyl-4,5,6,7-tetrahydropyrazolo[1,5-a]pyrimidine-3-carboxamide], the melting point was 193 to 194 °C.

Molecule `COc1cccc(C2CC(C)(C)n3nc(C)c(C(=O)O)c3N2)c1` (stereo not drawn) [Example 947, 5-(3-methoxyphenyl)-2,7,7-trimethyl-4,5,6,7-tetrahydropyrazolo[1,5-a]pyrimidine-3-carboxylic acid] returned a melting point of 151 to 152 °C.

Consider `CCCC1(NC(=O)c2cnn3c2NC(c2ccccc2)CC3(C)C)CCCCC1` (stereo not drawn) [Example 619, 7,7-dimethyl-5-phenyl-N-(1-propylcyclohexyl)-4,5,6,7-tetrahydropyrazolo[1,5-a]pyrimidine-3-carboxamide], for which the melting point is 152 to 153 °C.

As to `O=C(NC1C2CC3CC(C2)CC1C3)c1cnn2c1NC(c1ccc3ccccc3c1)CC2C(F)(F)F` (stereo not drawn) [Example 90, N-(2-adamantyl)-5-(2-naphthyl)-7-(trifluoromethyl)-4,5,6,7-tetrahydropyrazolo[1,5-a]pyrimidine-3-carboxamide], the melting point fell in the range of 280 to 282 °C.

Molecule `CCC1(CC)C[C@@H](OC)CN1C(=O)c1cnn2c1N[C@@H](c1ccccc1)CC2(C)C` [Example 1111, (5R)-3-(((4R)-2,2-diethyl-4-methoxy-1-pyrrolidinyl)carbonyl)-7,7-dimethyl-5-phenyl-4,5,6,7-tetrahydropyrazolo[1,5-a]pyrimidine] came in with a melting point of 148 to 150 °C.

With `O=C(O)c1cnn2c1NC(c1ccc3ccccc3c1)CC2C(F)(F)F` (stereo not drawn) [Example 22, 5-(2-naphthyl)-7-(trifluoromethyl)-4,5,6,7-tetrahydropyrazolo[1,5-a]pyrimidine-3-carboxylic acid], the melting point is 143 to 145 °C.

Molecule `CCC(CC)(NC(=O)c1c(C)nn2c1N[C@@H](c1ccccc1)CC2(C)C)c1ccc(Cl)cc1` [Example 1042, (5R)-N-(1-(4-chlorophenyl)-1-ethylpropyl)-2,7,7-trimethyl-5-phenyl-4,5,6,7-tetrahydropyrazolo[1,5-a]pyrimidine-3-carboxamide] showed a melting point of 128 to 129 °C.

`CCC(CC)(NC(=O)c1c(C)nn2c1NC(c1ccccc1)CC2(C)C)c1ccc(N(C)C)cc1` (stereo not drawn) (as salt: HCl) [Example 821, N-(1-(4-(dimethylamino)phenyl)-1-ethylpropyl)-2,7,7-trimethyl-5-phenyl-4,5,6,7-tetrahydropyrazolo[1,5-a]pyrimidine-3-carboxamide] yielded a melting point of 140 to 141 °C.

Consider `CCCC(CC)(CC)NC(=O)c1c(C)nn2c1NC(c1ccccc1F)CC2(C)C` (stereo not drawn) (as salt: HCl) [Example 957, N-(1,1-diethylbutyl)-5-(2-fluorophenyl)-2,7,7-trimethyl-4,5,6,7-tetrahydropyrazolo[1,5-a]pyrimidine-3-carboxamide], for which the melting point lay within 181 to 182 °C.

In turn, `Cc1cccc(C2CC(C)(C)n3nc(C)c(C(=O)O)c3N2)c1` (stereo not drawn) [Example 946, 2,7,7-trimethyl-5-(3-methylphenyl)-4,5,6,7-tetrahydropyrazolo[1,5-a]pyrimidine-3-carboxylic acid] displayed a melting point of 146 to 148 °C.

Turning to `CCOC(=O)c1ccc(C(CC)(CC)NC(=O)c2c(C)nn3c2N[C@@H](c2ccccc2)CC3(C)C)cc1` (as salt: HCl) [Example 1074, (5R)-ethyl 4-(1-ethyl-1-(((2,7,7-trimethyl-5-phenyl-4,5,6,7-tetrahydropyrazolo[1,5-a]pyrimidin-3-yl)carbonyl)amino)propyl) benzoate], the melting point was 125 to 126 °C.

The molecule `CCC(CC)(NC(=O)c1cnn2c1NC(c1ccccc1)CC2(C)C)c1cc(-c2ccc(F)cc2)n(C)n1` (stereo not drawn) [Example 726, N-(1-ethyl-1-(5-(4-fluorophenyl)-1-methyl-1H-pyrazol-3-yl)propyl)-7,7-dimethyl-5-phenyl-4,5,6,7-tetrahydropyrazolo[1,5-a]pyrimidine-3-carboxamide] showed a melting point of 218 to 219 °C.

The molecule `O=C(NC12CC3CC(CC(C3)C1)C2)c1cnn2c1NC(c1ccccc1)CC21CCCC1` (stereo not drawn) [Example 183, N-(1-adamantyl)-5′-phenyl-5′,6′-dihydro-4′H-spiro[cyclopentane-1,7′-pyrazolo[1,5-a]pyrimidine]-3′-carboxamide] yielded a melting point of 259 to 261 °C.

Molecule `CC(C)(NC(=O)c1cnn2c1NC(c1ccccc1)CC2C(F)(F)F)c1cccc2ccccc12` (stereo not drawn) [Example 368, N-(1-methyl-1-(1-naphthyl)ethyl)-5-phenyl-7-(trifluoromethyl)-4,5,6,7-tetrahydropyrazolo[1,5-a]pyrimidine-3-carboxamide] showed a melting point of 221 to 222 °C.

Regarding `CCC(CC)(NC(=O)c1c(C)nn2c1N[C@@H](c1ccccc1)CC2(C)C)c1ccc(C)c(Cl)c1` (as salt: HCl) [Example 1069, (5R)-N-(1-(3-chloro-4-methylphenyl)-1-ethylpropyl)-2,7,7-trimethyl-5-phenyl-4,5,6,7-tetrahydropyrazolo[1,5-a]pyrimidine-3-carboxamide], the melting point fell in the range of 129 to 130 °C.

Turning to `O=C(NC12CC3CC(CC(C3)C1)C2)c1cnn2c1NC(c1ccco1)CC2C(F)(F)F` (stereo not drawn) [Example 270, N-(1-adamantyl)-5-(2-furyl)-7-(trifluoromethyl)-4,5,6,7-tetrahydropyrazolo[1,5-a]pyrimidine-3-carboxamide], the melting point lay within 230 to 231 °C.

For `CCOC(=O)CCCOc1ccc(C(CC)(CC)NC(=O)c2cnn3c2NC(c2ccccc2)CC3(C)C)cc1` (stereo not drawn) [Example 770, ethyl 4-(4-(1-(((7,7-dimethyl-5-phenyl-4,5,6,7-tetrahydropyrazolo[1,5-a]pyrimidin-3-yl)carbonyl)amino)-1-ethyl-propyl)phenoxy)butanoate], the melting point was in the range of 101 to 102 °C.

These data come from patent publication US9447100B2, “Substituted pyrazolo[1,5-A] pyrimidines as calcium receptor modulating agents” (Takeda Pharmaceutical Company Limited, priority 2002, dated 2016).
